Assay results as given in patent publication US6699877B2 (Gruenenthal GmbH, priority 2000, dated 2004).

What was measured:
[1] = system: formalin-induced nociception; test: Formalin test, rat (second/late phase); format: in vivo; settings: i.p., 21.5 mg/kg, late phase
Protocol: Experiments to determine the antinociceptive activity of the compounds according to the invention of Formula I were carried out in the formalin test on male rats (Sprague-Dawley, 150-170 g).
In the formalin test, the first (early) phase (0-15 min after formalin injection) was distinguished from the second (late) phase (15-60 min after formalin injection) (D. Dubuisson, S. G. Dennis, Pain 4, 161-174 (1977)). The early phase, as a direct reaction to the formalin injection, represents a model for acute pain while the late phase is considered as a model for persistent (chronic) pain (T. J. Coderre, J. Katz, A. L. Vaccarino, R. Melzack, Pain, Vol. 52, p. 259,1993).
The compounds according to the invention were investigated in the second phase of the formalin test to obtain information about the effects of substances in chronic/inflammatory pain.
A nociceptive reaction was induced in freely moving experimental animals by a single subcutaneous formalin injection (50 μl, 5%) into the dorsal side of the back right paw, the nociceptive reaction being portrayed by the following behavioral parameters: lifting and holding the respective paw (Score 1), shaking and twitching (Score 2), licking and biting (Score 3). The different behavioral patterns triggered by the formalin injection were recorded continuously by observing the animals in the late phase of the formalin test and were weighted differently in an evaluation. Normal behavior in which the animal loads all four paws uniformly was recorded as score 0. The moment of administration prior to the formalin injection was selected according to the method of administration of the compounds according to the invention (intraperitoneal: 15 min, intravenous: 5 min). The described behavioral patterns (Score 1 to 3) in the animals are reduced and possibly even eliminated after injection of substances which have an antinociceptive effect in the formalin test. A comparisom was made with control animals which had received vehicles (solvents) prior to formalin administration. The nociceptive behavior was calculated as a so-called pain rate (PR). The various behavioral parameters received a different weighting (Factor 0, 1, 2, 3). Calculation took place at partial intervals of 3 min according to the following formula:
Substance and vehicle groups include n=10 animals in each case. The effect of the substance was determined as a percentage change versus control on the basis of the PR calculations. The ED50 calculations were made by regression analysis.

[2] = target: T1, NMDA receptor channel (Rattus norvegicus, UniProt P35439); test: NMDA/glycine-induced ionic currents in RNA-injected Xenopus oocytes (two-electrode voltage clamp); format: cell-based
T1 construct: were micro-injected with total RNA from brain tissue of adult rats; expressed in transfected cells; host or cells: Xenopus laevis oocytes injected with total RNA from adult rat brain
Protocol: NMDA/Glycine-induced Ionic Currents in RNA-injected Xenopus Oocytes
The experiment to determine functional changes in the NMDA receptor channel due to the compound according to the invention of Formula I was carried out on oocytes of the South African clawed frog, Xenopus laevis. Neuronal NMDA receptor channels were formed for this purpose after injection of RNA from rats' brain into oocytes and were measured by coapplication of NMDA and glycine-activated ionic currents.
Xenopus oocytes from stages V and VI (Dumont, J. N., Journal of Morphology, Vol. 136, 1972) were micro-injected with total RNA from brain tissue of adult rats (100-130 ng/cell) and kept in the culture medium (composition in mmol/l: 88.0 NaCl, 1.0 KCl, 1.5 CaCl2, 0.8 MgSO4, 2.4 NaHCO3, 5 HEPES, 100 IU/ml penicillin, 100 μg/ml streptomycin, pH 7.4) for up to 10 days at 20° C. Transmembranous ionic currents were recorded as in conventional two-electrode voltage clamp technology with a holding potential of −70 mV (P. Bloms-Funke P, M. Madeja, U. Muβhoff, E.-J. Speckman, Neuroscience Letters, Vol. 205, p. 115, 1996). […] To test the effects of substances brought about via the glycine B-binding site of the NMDA receptor channel, the glycine dosage/response curve was recorded with and without the respective compound according to the invention. […] The data was analyzed using Igor-Pro software (Version 3.1, WaveMetrics USA). […]

SMILES: O=C(O)C1Nc2cc(Cl)cc(Cl)c2C2C=CCC12 (stereo not drawn) [Example 2, 7,9-dichloro-3a,4,5,9b-tetrahydro-3H-cyclopenta[c]quinoline-4-carboxylic Acid]
- % inhibition of formalin-induced nociception [1]: 64.5%
- Kb ([2]; NMDA 100 μmol/l with glycine 0-100 μmol/l, oocytes injected with rat brain RNA, read-out: NMDA/glycine-induced ionic currents pA2 value of glycine dosage/response curve (converted)): 398 nM
- Effect on the glycine dosage/response curve (FIG. 1) ([2]; RNA-injected oocytes, amplitude standardized to NMDA/glycine (100/10 μmol/l)): displacement of the glycine dosage/response curve to the right
